Reference: PubChem BioAssay (NCI)
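48-hour exposure; five concentrations; linearly interpolated endpoints. The concentration for 50% growth inhibition is given as GI50. Definition used: TGI = concentration required for complete inhibition of growth.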

Tested on: P388 leukemia
Assay: NCI tumour cell line growth inhibition, 48 h

SMILES: O=[Se](=O)c1ccccc1.O=[Se](=O)c1ccccc1.[Cu]
- GI50: 5.23 µM
- TGI: 29 µM
